Test results taken from PubChem BioAssay (NCI).
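The concentration for 50% growth inhibition is given as GI50. TGI is the concentration that stops growth completely.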

What was measured:
Assay in all cases: NCI-60 cell line screen, 384-well format
CCRF-CEM leukemia = test system: CCRF-CEM leukemia
MDA-MB-435 melanoma = test system: MDA-MB-435 melanoma
SNB-19 CNS = test system: SNB-19 CNS
OVCAR-3 ovarian = test system: OVCAR-3 ovarian
OVCAR-5 ovarian = test system: OVCAR-5 ovarian
786-0 renal = test system: 786-0 renal
MOLT-4 leukemia = test system: MOLT-4 leukemia
PC-3 prostate = test system: PC-3 prostate
HCC-2998 colon = test system: HCC-2998 colon
SK-MEL-28 melanoma = test system: SK-MEL-28 melanoma
UO-31 renal = test system: UO-31 renal
IGROV1 ovarian = test system: IGROV1 ovarian
MCF7 breast = test system: MCF7 breast

C/C=C1\NC(=O)[C@H]2CSSCCC=C[C@H](CC(=O)N[C@H](C(C)C)C(=O)N2)OC(=O)[C@H](C(C)C)NC1=O
GI50 (CCRF-CEM leukemia): < 10 nM
TGI (CCRF-CEM leukemia): < 10 nM
GI50 (MDA-MB-435 melanoma): < 10 nM
TGI (MDA-MB-435 melanoma): < 10 nM
GI50 (SNB-19 CNS): < 10 nM
TGI (SNB-19 CNS): < 10 nM
GI50 (OVCAR-3 ovarian): < 10 nM
TGI (OVCAR-3 ovarian): < 10 nM
GI50 (OVCAR-5 ovarian): < 10 nM
TGI (OVCAR-5 ovarian): < 10 nM
GI50 (786-0 renal): < 10 nM
TGI (786-0 renal): < 14.9 nM
GI50 (MOLT-4 leukemia): < 10 nM
TGI (MOLT-4 leukemia): < 10 nM
GI50 (PC-3 prostate): < 10 nM
TGI (PC-3 prostate): < 10 nM
GI50 (HCC-2998 colon): < 10 nM
TGI (HCC-2998 colon): < 10 nM
GI50 (SK-MEL-28 melanoma): < 10 nM
TGI (SK-MEL-28 melanoma): < 10 nM
GI50 (UO-31 renal): 43.6 nM
TGI (UO-31 renal): 159 nM
GI50 (IGROV1 ovarian): < 10 nM
TGI (IGROV1 ovarian): < 10 nM
GI50 (MCF7 breast): < 10 nM
TGI (MCF7 breast): < 10 nM
